“And” between values parts separate entries of the source, which are not always exact repeats. Equal entries are not always repeated. Bounds are passed on as bounds.

In series [1] the test system is BCL10 and MALT1 mRNA in TMD8 cells. The experiment in a line: BCL10 and MALT1 mRNA expression, qRT-PCR. The format is cell-based, human. To be noted: TMD8, 1 μM. (In general: Real-time PCR tracks product formation cycle by cycle.)
The test system of another series is TMD8 tumor xenografts. The experiment in a line: TMD8 xenograft in NOD-SCID mice. The format is in vivo, mouse. An excerpt: TMD8 cells were engrafted into 8-week-old female NOD.CB17-Prkdc^scid/J (NOD-SCID) mice from The Jackson Laboratory by subcutaneous injection of 10 × 10^6 cells resuspended in 50% Cultrex Basement Membrane Extract (R&D Systems, catalog 3632-010-02) into the right flank. OCI-Ly3 cells were engrafted into 5-week-old female NOD.Cg-Prkdc^scid Il2rg^tm1Wjl/SzJ (NSG) mice from The Jackson Laboratory by subcutaneous injection of 2.5 × 10^6 cells resuspended in Cultrex as above. OCI-Ly1 cells were engrafted into 6.5-week-old female NSG mice from The Jackson Laboratory by subcutaneous injection of 20 × 10^6 cells resuspended in Cultrex as above. For all xenograft models, when tumors reached an average volume of 100 mm^3, mice were randomized to receive M1i-124 (50 mg/kg i.p. per day), or equivalent volume of DMSO vehicle (50 μL i.p. per day). […] Tumor size was measured 3 times a week using a caliper and calculated using the formula (smallest diameter^2 × largest diameter)/2. Mice were sacrificed 24 hours after the last injection. Mice were sacrificed when the largest tumors reached 2,500 mm^3. For TMD8 xenograft experiments, tumors and various organs, including lung, heart, liver, and kidney, were collected and fixed in 10% buffered formalin, embedded in FFPE blocks, sectioned, and stained with H&E. Sections were evaluated by a board-certified pathologist.

In a further series the test system is WT C57BL/6 mice. The experiment in a line: Flow cytometry of spleen immune cell subsets after 12 days of treatment. Format: in vivo, mouse. The settings on record: 50 mg/kg, vs vehicle, result in words. How it is done: Long-term in vivo toxicity experiments. WT C57/BL6 (The Jackson Laboratory) male and female mice were treated daily with 50 mg/kg M1i-124 or vehicle control for 28 days. At the time of sacrifice, blood was obtained for complete blood count, alanine transaminase, albumin, and total bilirubin (Abaxis). Livers from control and M1i-124 treated mice were collected for H&E analysis.
Flow cytometry. Splenocytes were isolated from WT mice after 12 days of treatment with 50 mg/kg M1i-124 or vehicle control. After obtaining a single cell suspension using […] filter, cells were stained with viability dye (Tonbo Biosciences Ghost Red 780, Fisher Healthcare, Cat #50-105-2988). After blocking with mouse BD Fc BlockTM (BD Biosciences, Cat# 553141), splenocytes were stained with a panel of antibodies including antibodies from Invitrogen (anti-CD3 APC, Cat# […]
0251-82 and anti-NK1.1 PE-Cyanine 7 Cat#25-5941-82), an antibody from BD Bioscience (anti- […]
and anti-CD4 BV711 Cat# 100557). Samples were run on a 5 laser LSR Fortessa flow cytometer and analyzed with FlowJo software.
In general terms: In flow cytometry, cells or beads pass a laser one at a time.

In the next series the test system is OCI-Ly7 cells. The experiment in a line: Apoptosis, annexin staining flow cytometry. Format: cell-based, human.
The target in the next series is T1, hERG (Homo sapiens, UniProt Q12809).
T1 construct: Eurofins SAFETYscan78
The experiment in a line: SAFETYscan78 off-target screen. To be noted: off-target panel; read-out: EC50 or IC50, hERG. An excerpt: (§1) We also tested for possible adverse actions of M1i-124 on cytochrome P450 (CYP) enzymes that might limit its use in vivo. The CYP family of enzymes are responsible for phase I metabolism of many drugs and endogenous substances, and their inhibition can lead to unanticipated toxicities. […] To further test for potential off-target effects of M1i-124, we conducted an in vitro safety pharmacology profiling screen that measures the ability of a candidate compound to inhibit 78 key GPCRs, ion channels, nuclear hormone receptors, neurotransmitter transporters, kinases, and non-kinase enzymes. […]
(§2) cological profile for M1i-124. EC50 or I C50 f or act i vi t y agai nst sel ect GPCRs, i on channel s, nucl ear hor mone r eceptor s, ki nases, and neur otr ansmi tter tr anspor ter s i n an off-target activity screen of M1i-124 (Eurofins SAFETYscan78). When unmeasurable, the EC50 or IC50 for an indicated target is listed as >10 […]
(§3) (1 picture or pasted object on this page, not shown here)

In another series the target is T2, INSR (Homo sapiens, UniProt P06213).
T2 construct: Eurofins SAFETYscan78
The experiment in a line: SAFETYscan78 off-target screen. The settings on record: off-target panel; read-out: EC50 or IC50, INSR.
Description: as §1, §2, §3

In the next series the target is T3, ROCK1 (Homo sapiens, UniProt Q13464).
T3 construct: Eurofins SAFETYscan78
The experiment in a line: SAFETYscan78 off-target screen. To be noted: off-target panel; read-out: EC50 or IC50, ROCK1.
Description: as §1, §2, §3

The subject of the next series is COX1/2. The experiment in a line: SAFETYscan78 off-target screen. The settings on record: off-target panel; read-out: EC50 or IC50, COX1/2.
Description: as §1, §2, §3

The next series addresses T4, LCK (Homo sapiens, UniProt P06239).
T4 construct: Eurofins SAFETYscan78
The experiment in a line: SAFETYscan78 off-target screen. The settings on record: off-target panel; read-out: EC50 or IC50, LCK.
Description: as §1, §2, §3

The next series addresses T5, PDE4 (Homo sapiens, UniProt Q08499).
T5 construct: Eurofins SAFETYscan78
The experiment in a line: SAFETYscan78 off-target screen. The settings on record: off-target panel; read-out: EC50 or IC50, PDE4.
Description: as §1, §2, §3

The target in another series is T6, VEGFR2 (Homo sapiens, UniProt P35968).
T6 construct: Eurofins SAFETYscan78
The experiment in a line: SAFETYscan78 off-target screen. To be noted: off-target panel; read-out: EC50 or IC50, VEGFR2.
Description: as §1, §2, §3

T6 sequence (P35968 20-1356): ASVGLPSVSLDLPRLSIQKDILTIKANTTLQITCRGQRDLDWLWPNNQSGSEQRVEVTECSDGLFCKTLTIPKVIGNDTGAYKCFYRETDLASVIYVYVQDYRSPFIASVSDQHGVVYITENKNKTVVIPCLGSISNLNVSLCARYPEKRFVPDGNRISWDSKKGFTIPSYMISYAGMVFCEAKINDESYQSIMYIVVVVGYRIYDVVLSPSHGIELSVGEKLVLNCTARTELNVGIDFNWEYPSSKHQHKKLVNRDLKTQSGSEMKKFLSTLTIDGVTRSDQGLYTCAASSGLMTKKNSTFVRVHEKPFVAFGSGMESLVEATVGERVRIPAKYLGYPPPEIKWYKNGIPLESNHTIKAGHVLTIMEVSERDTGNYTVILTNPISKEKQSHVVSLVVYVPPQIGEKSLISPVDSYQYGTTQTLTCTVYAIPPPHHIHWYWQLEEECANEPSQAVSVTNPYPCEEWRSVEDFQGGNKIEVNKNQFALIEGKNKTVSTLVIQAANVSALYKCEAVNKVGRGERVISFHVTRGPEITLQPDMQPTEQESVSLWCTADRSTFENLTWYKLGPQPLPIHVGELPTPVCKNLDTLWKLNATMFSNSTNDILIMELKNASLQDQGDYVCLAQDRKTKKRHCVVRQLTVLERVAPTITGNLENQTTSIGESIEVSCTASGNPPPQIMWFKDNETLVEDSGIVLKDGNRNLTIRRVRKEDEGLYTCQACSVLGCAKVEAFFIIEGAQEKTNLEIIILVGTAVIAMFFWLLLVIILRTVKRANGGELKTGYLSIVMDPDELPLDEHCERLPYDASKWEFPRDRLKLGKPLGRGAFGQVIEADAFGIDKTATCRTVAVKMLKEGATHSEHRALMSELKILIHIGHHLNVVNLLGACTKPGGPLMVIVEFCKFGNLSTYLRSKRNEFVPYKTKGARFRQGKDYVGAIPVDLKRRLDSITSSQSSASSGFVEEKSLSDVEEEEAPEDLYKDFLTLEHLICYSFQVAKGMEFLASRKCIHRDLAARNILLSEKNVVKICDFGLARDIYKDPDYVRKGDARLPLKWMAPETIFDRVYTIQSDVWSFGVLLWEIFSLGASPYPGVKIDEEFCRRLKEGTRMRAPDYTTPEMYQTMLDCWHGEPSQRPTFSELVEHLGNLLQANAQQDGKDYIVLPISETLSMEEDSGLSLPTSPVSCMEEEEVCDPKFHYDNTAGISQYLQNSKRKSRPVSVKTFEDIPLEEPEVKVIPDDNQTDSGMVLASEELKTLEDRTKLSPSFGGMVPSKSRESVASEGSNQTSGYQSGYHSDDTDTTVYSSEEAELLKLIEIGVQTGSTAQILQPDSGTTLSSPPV
T5 sequence (Q08499 303-809 limits assumed): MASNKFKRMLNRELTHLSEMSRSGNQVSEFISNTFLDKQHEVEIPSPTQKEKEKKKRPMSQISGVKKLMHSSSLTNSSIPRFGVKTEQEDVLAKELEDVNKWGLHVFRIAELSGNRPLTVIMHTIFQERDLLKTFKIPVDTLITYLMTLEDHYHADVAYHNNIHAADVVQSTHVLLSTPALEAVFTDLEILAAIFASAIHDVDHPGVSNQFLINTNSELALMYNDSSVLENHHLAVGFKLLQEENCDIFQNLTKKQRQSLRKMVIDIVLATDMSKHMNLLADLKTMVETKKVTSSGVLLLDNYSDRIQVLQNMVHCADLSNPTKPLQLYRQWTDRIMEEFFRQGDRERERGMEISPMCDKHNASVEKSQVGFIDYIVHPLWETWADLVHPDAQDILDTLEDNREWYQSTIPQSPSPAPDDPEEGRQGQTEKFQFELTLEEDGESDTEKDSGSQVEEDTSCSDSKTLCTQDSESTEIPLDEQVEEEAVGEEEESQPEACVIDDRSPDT
T1 sequence (Q12809 whole entry): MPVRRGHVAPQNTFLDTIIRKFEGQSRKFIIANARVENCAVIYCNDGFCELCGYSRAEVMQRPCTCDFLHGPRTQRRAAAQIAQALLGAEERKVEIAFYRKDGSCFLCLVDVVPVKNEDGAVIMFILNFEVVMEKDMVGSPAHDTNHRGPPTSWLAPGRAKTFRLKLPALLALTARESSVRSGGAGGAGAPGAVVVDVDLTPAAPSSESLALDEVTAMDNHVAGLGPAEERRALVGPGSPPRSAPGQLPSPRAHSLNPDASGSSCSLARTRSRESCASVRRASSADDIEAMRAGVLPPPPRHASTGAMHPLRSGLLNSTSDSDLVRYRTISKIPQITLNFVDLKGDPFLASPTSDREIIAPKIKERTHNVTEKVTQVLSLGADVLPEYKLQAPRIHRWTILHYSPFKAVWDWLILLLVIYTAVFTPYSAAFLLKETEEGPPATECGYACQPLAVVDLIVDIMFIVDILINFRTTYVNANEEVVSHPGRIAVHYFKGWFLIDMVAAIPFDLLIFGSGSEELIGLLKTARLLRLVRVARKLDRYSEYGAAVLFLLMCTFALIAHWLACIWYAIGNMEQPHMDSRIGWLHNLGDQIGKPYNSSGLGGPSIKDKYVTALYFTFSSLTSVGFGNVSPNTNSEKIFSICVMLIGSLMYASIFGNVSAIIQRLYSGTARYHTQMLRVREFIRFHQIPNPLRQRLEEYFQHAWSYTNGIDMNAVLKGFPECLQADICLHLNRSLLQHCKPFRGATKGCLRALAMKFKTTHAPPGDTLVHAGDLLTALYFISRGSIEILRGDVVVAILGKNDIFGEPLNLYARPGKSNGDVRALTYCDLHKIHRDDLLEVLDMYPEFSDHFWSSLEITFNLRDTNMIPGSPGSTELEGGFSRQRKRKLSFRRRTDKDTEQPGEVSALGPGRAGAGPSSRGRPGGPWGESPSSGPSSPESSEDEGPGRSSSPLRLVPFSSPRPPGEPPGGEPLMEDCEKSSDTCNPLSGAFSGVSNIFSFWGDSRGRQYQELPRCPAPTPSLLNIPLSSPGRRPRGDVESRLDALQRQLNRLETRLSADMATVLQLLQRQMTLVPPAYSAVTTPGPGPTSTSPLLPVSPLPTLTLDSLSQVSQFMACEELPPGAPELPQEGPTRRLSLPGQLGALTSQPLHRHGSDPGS
T3 sequence (Q13464 whole entry): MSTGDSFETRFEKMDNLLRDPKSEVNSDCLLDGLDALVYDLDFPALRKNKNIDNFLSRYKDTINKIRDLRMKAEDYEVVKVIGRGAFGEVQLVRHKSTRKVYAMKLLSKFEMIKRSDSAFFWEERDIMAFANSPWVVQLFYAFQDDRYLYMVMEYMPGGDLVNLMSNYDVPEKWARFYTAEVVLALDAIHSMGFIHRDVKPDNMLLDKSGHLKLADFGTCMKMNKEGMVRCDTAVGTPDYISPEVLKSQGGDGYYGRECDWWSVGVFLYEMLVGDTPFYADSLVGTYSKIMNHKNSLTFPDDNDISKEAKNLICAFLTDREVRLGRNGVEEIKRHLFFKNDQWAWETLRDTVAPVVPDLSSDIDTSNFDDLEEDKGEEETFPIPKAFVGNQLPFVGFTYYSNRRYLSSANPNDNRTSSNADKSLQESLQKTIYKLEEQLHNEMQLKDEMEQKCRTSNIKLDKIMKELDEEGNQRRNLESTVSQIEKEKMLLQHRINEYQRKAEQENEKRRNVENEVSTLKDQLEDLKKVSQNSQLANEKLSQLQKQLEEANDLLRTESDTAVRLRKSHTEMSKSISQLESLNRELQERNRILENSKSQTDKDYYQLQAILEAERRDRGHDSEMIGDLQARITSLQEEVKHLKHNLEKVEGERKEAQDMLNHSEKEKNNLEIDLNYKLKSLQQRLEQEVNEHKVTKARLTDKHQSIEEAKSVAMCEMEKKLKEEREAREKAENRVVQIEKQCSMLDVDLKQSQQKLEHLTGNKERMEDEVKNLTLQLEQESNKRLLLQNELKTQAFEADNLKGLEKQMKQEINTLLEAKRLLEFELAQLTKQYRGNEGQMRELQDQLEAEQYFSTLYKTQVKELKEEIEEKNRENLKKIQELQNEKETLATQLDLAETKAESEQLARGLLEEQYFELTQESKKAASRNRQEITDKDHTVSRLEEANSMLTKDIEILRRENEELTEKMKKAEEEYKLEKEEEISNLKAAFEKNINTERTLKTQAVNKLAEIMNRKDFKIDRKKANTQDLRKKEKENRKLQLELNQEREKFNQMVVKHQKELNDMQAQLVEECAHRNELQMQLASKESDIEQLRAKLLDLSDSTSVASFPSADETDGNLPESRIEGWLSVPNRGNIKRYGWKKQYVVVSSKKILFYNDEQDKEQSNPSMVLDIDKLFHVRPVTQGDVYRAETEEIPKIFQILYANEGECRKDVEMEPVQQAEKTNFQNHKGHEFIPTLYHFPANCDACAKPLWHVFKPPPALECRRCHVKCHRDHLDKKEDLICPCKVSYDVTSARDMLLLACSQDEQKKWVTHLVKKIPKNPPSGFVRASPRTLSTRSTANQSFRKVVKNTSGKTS
T4 sequence (P06239 whole entry): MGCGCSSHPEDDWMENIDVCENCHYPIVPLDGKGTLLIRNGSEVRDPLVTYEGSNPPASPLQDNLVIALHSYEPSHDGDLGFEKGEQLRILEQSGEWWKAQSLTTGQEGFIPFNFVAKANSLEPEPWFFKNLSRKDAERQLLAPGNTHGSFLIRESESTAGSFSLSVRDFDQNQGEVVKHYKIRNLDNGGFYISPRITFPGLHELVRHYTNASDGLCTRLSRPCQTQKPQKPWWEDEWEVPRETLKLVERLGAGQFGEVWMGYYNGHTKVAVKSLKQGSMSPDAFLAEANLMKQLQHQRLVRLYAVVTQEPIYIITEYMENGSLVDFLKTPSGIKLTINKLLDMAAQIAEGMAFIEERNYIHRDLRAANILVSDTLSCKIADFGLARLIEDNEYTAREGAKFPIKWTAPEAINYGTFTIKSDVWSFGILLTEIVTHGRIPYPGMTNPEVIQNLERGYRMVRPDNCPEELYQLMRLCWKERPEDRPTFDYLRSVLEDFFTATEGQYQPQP

`O=S(=O)(NCc1ccc2c(c1)OCO2)c1ccc(Cc2ccc(S(=O)(=O)NCc3ccc4c(c3)OCO4)cc2)cc1` [M1i-124]: the “BCL10 mRNA (normalized)” value was 1.102 and 1.661 and 1.831 in [1] (48 hrs); 2.063 and 2.239 and 2.314 in series [1] (72 hrs). Besides, the “MALT1 mRNA (normalized)” value in series [1] (72 hrs) is 1.674 and 1.428 and 1.962. The “growth of TMD8 tumor xenografts (tumor volume, terminal tumor weight)” value in the series on TMD8 tumor xenografts (50 mg/kg i.p. per day, 12 days, vs DMSO, result in words) is “significantly suppressed”. Besides, the “body weight of xenograft mice” value in the series on TMD8 tumor xenografts (at conclusion of experiment, result in words) is “slightly lower body weights”. In addition, the “microscopic evaluation of major organs” value in the series with TMD8 tumor xenografts (heart, lung, liver, adrenal, kidney, result in words) is “no signs of histologic abnormality”. Further, the Terminal body weights in the series with TMD8 tumor xenografts (individual mice) was 17.69 g and 19.26 g and 19.45 g and 20.17 g and 20.3 g and 20.4 g and 20.6 g and 20.42 g. For the same compound, the “clinical signs during treatment” value in the series on TMD8 tumor xenografts (result in words) was “No abnormal clinical signs or indicators of adverse reaction were observed”. For the same compound, in the series on WT C57BL/6 mice, the “percentage of total lymphocytes and specific lymphocyte populations within the spleen” value is given as “no difference”. In addition, in the series with OCI-Ly7 cells (Ly7, individual replicates), the “Annexin (% positivity)” value is 27% and 16.65% and 14.5%. In addition, the “apoptosis of OCI-Ly7 cells” value in the series on OCI-Ly7 cells (result in words) is on record as “either no or minimal apoptotic response”. The IC50 at hERG, at INSR, at ROCK1, in the series with COX1/2, on LCK and at PDE4 was more than 10 µM throughout. The IC50 at VEGFR2 was more than 10 µM.
